Source: patent US5866576A, “Epoxide-containing compounds” (Cell Therapeutics, Inc., priority 1997, dated 1999)
pIC50: −log10 of the molar value. “Also recorded” adds a separate entry of the source.

How the values were obtained:
[1] = system: thymocytes; experiment: murine thymocyte proliferation assay co-stimulated by ConA and IL-2 (FIGS. 7A-7E); assay type: cell-based, Balb/C mice; conditions: Mus musculus
From the text: This example illustrates dose response curves used to generate 50% inhibition concentrations (IC50) for inventive compounds nos. 1410, 1439, 1541, 1553, 1553S, 1560, 1565, 2548R, 2548S and 2562 in a murine thymocyte proliferation assay, co-stimulated by Concanavalin A (ConA) and interleukin-2 alpha (IL-2). ConA, used to activate the T-cell receptor (TCR), along with IL-2 co-stimulation, induces T-cell proliferation and differentiation. Thymuses, obtained from normal, female Balb/C mice, were dissociated and plated into 96-well plates at a density of 2×10^5 cells/well. ConA (0.25 mg/ml) and IL-2 (15 U/ml) were added to the wells. The cells were incubated for 4 days at 37° C. On day 4, the cells were pulsed with tritiated thymidine and incubated for an additional 4 hours. The amount of tritiated thymidine incorporated by the harvested cells was determined in a liquid scintillation counter. Doses of inventive compounds (shown in FIGS. 7A-7E) were added two hours prior to ConA and IL-2 activation. Background counts were less than 200 cpm. Results obtained, illustrate the ability of the inventive compounds to inhibit thymocyte proliferation and activation. In FIG. 7A, inventive compounds nos. […] FIG. 7B presents additional data for compound no. 1410 and 1553S in this assay. […] FIG. 7C reports assay results for inventive compounds nos. 1439, 1541, 1560 and 1565. […] FIGS. 7D and 7E illustrate assay results for inventive compounds nos. 1541, 1553, 1560 and 1565 (FIG. 7D) and 2562, […] (FIG. 7E). As is true of other inventive compounds tested, all these compounds represented in FIGS. 7D and 7E inhibit thymocyte proliferation. […] 1541, 1553, 1560, 1565, 2562, 2548R and 2548S, respectively.

[2] = system: lymph node cells; experiment: ovalbumin-induced proliferation in murine lymph cells (FIG. 13); assay type: cell-based, Balb/C mice; conditions: Mus musculus, OVA 200 μg/ml
From the text: This example illustrates effects of the inventive compounds on ovalbumin-induced proliferation in murine lymph cells. Lymphnode cells contain a mixture of lymphoid cells: T-cells, B-cells and macrophages. Although proliferating cells in this assay are T-cells, the response obtained depends on type of antigen-presenting cell (e.g., macrophages) as well as elaboration of various immunoregulatory cytokines. Thus, this assay serves as a good model for T-cell mediated responses and as a valuable screening tool in identifying compounds useful in immunosuppressive therapeutic applications.
Murine T-cells proliferate in vitro in response to a soluble protein antigen if first primed with a corresponding antigen in vivo. This in vivo priming usually involves emulsifying the antigen in complete Freunds adjuvant and injecting this preparation into an appropriate site on a mouse. In this assay the antigen employed was chicken ovalbumin(OVA). Following emulsification in Freund's complete adjuvant, 50 μg of OVA were injected into both hind footpads of adult Balb/C mice. Fourteen days later the draining lymph nodes(popliteal) were removed and a single cell suspension was prepared in RPMI-1640 (10%FCS) medium. Two hundred thousand lymph node cells are then plated into wells of flat-bottom 96-well plates. Inventive compouds nos. 1410, 1553 (racemic), 1553(S), 1560 and 1565 were added to appropriate wells at various concentrations. OVA, at a final concentration of 200 μg/ml, was added to appropriate wells. Positive and negative controls were established on each plate, all assay variables being set up in quadruplicate.
The plates were incubated in a humidified, 5% CO2 incubator for 5 days. On the fifth day, 1 μCi of tritiated thymidine was added to each well and the plates were incubated for an additional 4 hours. The plates were harvested and the incorporation of 3H-TdR was determined in a liquid scintillation counter. The CPM data was then used to calculate experimental IC50 values for the compounds tested. Again, IC50 is defined as that concentration of compound resulting in 50% inhibition of 3H-TdR incorporation of the positive control.

[3] = system: thymocytes; experiment: IL-2 (ConA co-stimulated) induced proliferation of thymocytes; assay type: cell-based, mice; conditions: Mus musculus, Thymocyte, 96 h; Table II; ConA 0.25 ug/ml / IL2 20 ng/ml, 4 days
Method: This example illustrates the effects of inventive compounds nos. 1105, 1114, 1413, 1439, 1594, 2518, 2548R, 2548S, 2562 and 3503 as effective inhibitors of IL-2 induced proliferation of thymocytes. Single cell suspensions of thymus gland cells obtained from 4-6 week old mice were prepared. Two-hundred thousand cells were plated into individual wells of flat-bottom 96-well plates in RPMI-1640-10% FCS medium. The invention compounds were then added to the wells at varying concentrations and the cells incubated for 1-2 hours at 37° C.
Following this pre-incubation a mixture of Concanavalin A (ConA) and Interleukin-2 (IL2) was added to the experimental wells at a final concentration of (0.25 ug/ml ConA)/(20 ng/ml IL2). Appropriate positive and negative controls were set up on each plate. Each variable was set up in quadruplicate.
The plates were incubated for 4 days at 37° C. in a humidified CO2 incubator. On day 4 the wells were pulsed with 1 μCi of tritiated thymidine(3H-TdR) and the plates incubated for an additional 4 hours. The plates were then harvested and the incorporation of 3H-TdR was determined in a liquid scintillation counter. From the CPM obtained from each experimental well an IC-50 for each inventive compound tested was determined. Therefore, a lower reported IC-50 value is indicative of greater inhibition of IL-2-induced proliferation of thymocytes. Table II illustrates IC-50 values (in μM) for inventive compounds inhibiting proliferation at very low concentrations of compound.

[4] = system: normal human bone marrow stromal cells (MSC); experiment: human bone marrow stromal cell (MSC) proliferation in response to PDGF BB and IL-1α; assay type: cell-based; conditions: Table III, PDGF BB 50 ng/ml and IL-1α 10 ng/ml
Method: This example illustrates the effects of inventive compounds nos. 1114, 1413, 1560, 1565, 1594, 2518, 2548R, 2548S and 3503 as effective inhibitors of normal human bone marrow stromal cells (MSC) proliferation in response to Platelet Derived Growth Factor BB (PDGF B) and IL-1α (50 and 10 ng/ml, respectively).
MSC were obtained and malintained in exponential growth, released from a growth plate with trypsin and plated into 96 well tissue culture plates in the presence of Fibroblast Growth Factor (FGFβ) for 48 hours. Growth media were removed and the cells were washed once with serum free media. The cells were then incubated 20-24 hours in serum free media.
After incubation, inventive compounds were added to the cells at the appropriate concentration and then the cells again incubated for 1 hour. PDGF B and IL-1α were added to the cells along with 3H-thymidine and the cells again incubated for an additional 24 hours.
After 24 hours of incubation, the cells were then harvested to assess incorporation of ^3 H-thymidine into DNA (proliferation). From each harvested cell culture, an IC-50 for each inventive compound tested was determined. Therefore, a lower reported IC-50 value is indicatilve of greater activity of the invention compounds in inhibiting MSC proliferation. Table III illustrates IC-50 values (in μM) for invention compounds inhibiting MSC proliferation at very low concentrations of compound.

[5] = system: murine splenocytes; experiment: murine splenocyte proliferation co-stimulated by anti-mu and IL-4 (FIG. 11); assay type: cell-based; conditions: Mus musculus, anti-mu / IL-4 12.5 ng/ml
Method: This example illustrates inhibitive effects of compounds nos. 1439, 1553S, 1560 and 1565 on murine splenocyte proliferation co-stimulated by anti-mu ([…]) and interleukin-4 (IL-4, 12.5 ng/ml). This in vitro assay, described above, is indicative of immune-suppressive/autoimmune treatment assay emphasizing humoral or B cell immune response. This assays are a predictive model for treatment or prevention of autoimmune diseases, such as diabetes, lupus, arthritis, and the like. The assay measures immunosuppressive activity of a drug at the B cell level. Spleens from adult mice contain immature B cells that express surface IgM. Cross-linking the surface IgM with an anti-mu antibody results in B cell proliferation. Additionally, this activation results in an increased expression of interleukin-4 receptors(IL-4R) on the surface of such cells. IL-4 acts as a growth factor for B cells and will increase the amount of proliferation induced by anti-mu.
A mixture of anti-mu and murine IL-4 is added to murine splenocytes to cause their proliferation. Mice spleens are obtained from adult mice and a single cell suspension is prepared in RPMI 1640 medium supplemented with 10% FCS. Cells (200,000) are plated into flat-bottomed wells and pre-incubated for 1-2 hours with various concentrations of inventive compound or PBS if it is a control. A mixture of anti-mu and murine is added to the wells at a final concentration of 5 μg/ml anti-mu and 12.5 ng/ml IL-4 and plates are incubated for three days. Proliferation is determined on the third day with a pulse of tritiated thymidine. The IC50 concentration of a particular drug is the concentration of drug that results in a 50% inhibition of the proliferation obtained from the positive control.

[6] = system: hair follicles / skin of nu/nu (nude) mice; experiment: hair growth stimulation in nude mice, topical, skin biopsies; assay type: in vivo
From the text: This example illustrates the effects of inventive compound no. 1541 as hair growth stimulant in nude mice. In a procedure similar to that used in a commercial model for predicting human hair-growing ability of minoxidil, nu/nu (nude) mice were painted twice daily for 16 days on the right flank with compound no. 1541 using sterile applicators. Researches handled the mice under a laminar flow hood with applicator, wearing face mask and sterile gloves.
After 16 days, one mouse was sacrificed by cervical dislocation and skin biopsies taken from the treated areas of the shoulder/flank and the non-treated area of the dorsal pelvis (rump). Specimens were placed in 10% buffered formalin solution.
Six weeks following treatment, a second mouse was euthanatized and biopsied the same as previous mouse after 16 days.

Compound	pIC50 ([1]; FIGS. 7D and 7E)	pIC50 [3]	pIC50 [4]	also measured
Cn1cnc2c1c(=O)n(CCCCCCC1CO1)c(=O)n2C (racemic) [Compound 1553, 1-(7,8-Oxidooctyl)-3,7-dimethylxanthine]	4.54			pIC50 [2]: 4.35
O=C1c2ccccc2C(=O)N1CCCCCCCC1CO1 (stereo not shown) [Compound 1105, N-(8,9-Oxidononyl) phthalimide]		5.07		
O=C1Cc2ccccc2C(=O)N1CCCCCCCCCC1CO1 (stereo not shown) [Compound 1114, N-(10,11-Oxidoundecyl) homophthalimide]		5.00	5.29	
Cn1c(=O)n(CCCCC2CO2)c(=O)c2c1ncn2COC(=O)C(C)(C)C (stereo not shown) [Compound 1410]				pIC50 ([1]; FIG. 7A): 4.17; pIC50 ([1]; FIG. 7B): 4.21; pIC50 [2]: 4.26
Cn1c(=O)n(CCCCCCCCCC2CO2)c(=O)c2[nH]cnc21 (stereo not shown) [Compound 1413, 1-(11,10-Oxidoundecyl)-3-methylxanthine]		5.11	5.43	
Cn1c(=O)n(CCCCC2CO2)c(=O)c2[nH]cnc21 (stereo not shown) [Compound 1439, 1-(5,6-Oxidohexyl)-3-methylxanthine]		5.10		pIC50 ([1]; FIG. 7C): > 4.60; pIC50 [5]: 4.51
C=CCCCCn1c(=O)c2c(ncn2C)n(C)c1=O [Compound 1539, 1-(5-Hexenyl)-3,7-dimethylxanthine]			4.74	
Cn1cnc2c1c(=O)n(CCCCC1CO1)c(=O)n2C (stereo not shown) [Compound 1541, 1-(5,6-Oxidohexyl)-3,7-dimethylxanthine]	4.24			pIC50 ([1]; FIG. 7C): 4.15; skin histology findings (inflammatory cells) ([6]; after 16 days, also a few in untreated areas): mild accumulations of mixed inflammatory cells in the dermis; hair/follicle findings six weeks following treatment ([6]; six weeks following treatment): confirmed hair loss; also recorded: slightly straighter superficial portions of follicles with less curling of hair shafts; also recorded: the subcutis contained active anagen bulbs located deeply in the subcutis; skin histology findings (acanthosis) ([6]; six weeks following treatment): slightly more acanthosis (epidermal hyperplasta) in treated areas; hair follicles and hair shafts in treated areas ([6]; topical, twice daily, 16 days, biopsy at 16 days): follicles in the treated areas had hair shafts which sometimes exit to the surface; also recorded: more normal appearing hair follicles than the untreated sections; also recorded: numerous hair shafts were seen exiting follicles in the treated sections
Cn1cnc2c1c(=O)n(CCCCCC[C@H]1CO1)c(=O)n2C [Compound 1553S, 1-(7(5)-7,8-Oxidooctyl)-3,7-dimethylxanthine]				pIC50 ([1]; FIG. 7B): 4.34; pIC50 [5]: 4.30; pIC50 [2]: 4.37
Cn1cnc2c1c(=O)n(CCCCCCCCC1CO1)c(=O)n2C (stereo not shown) [Compound 1565, 1-(9,10-Oxidodecyl)-3,7-dimethylxanthine]	4.52		4.77	pIC50 ([1]; FIG. 7C): 4.49; pIC50 [5]: 4.40; pIC50 [2]: 4.42
Cn1cnc2c1c(=O)n(CCCCCCCCCC1CO1)c(=O)n2C (stereo not shown) [Compound 1594]		5.07	4.85	
C[C@@H](CCCn1c(=O)c2c(ncn2C)n(C)c1=O)CCC1OC1(C)C (stereo partly drawn) [Compound 2548R, 1-(4-(R)-Methyl-7,8-oxido-8-methylnonyl)-3,7-dimethylxanthine]	4.80	5.12	5.06	
C[C@H](CCCn1c(=O)c2c(ncn2C)n(C)c1=O)CCC1OC1(C)C (stereo partly drawn) [Compound 2548S, 1-(4-(S)-Methyl-7,8-oxide-8-methylnonyl)-3,7-dimethylxanthine]	4.68	5.34	5.23	
Cn1cnc2c1c(=O)n(CCCCCCCCCCCC1CO1)c(=O)n2C (stereo not shown) [Compound 2562, 1-(12,13-Oxidotridecyl)-3,7-dimethylxanthine]	4.70	5.51		
Cn1cnc2c1c(=O)n(CCCCCCCCCCCCC1CO1)c(=O)n2C (stereo not shown) [Compound 3503, 1-(13,14-Oxidotetradecyl)-3,7-dimethylxanthine]		5.00	4.85	
